Results: the supplement of paper PMC11061612

Key:
Venetoclax = compound: CC1(C)CCC(CN2CCN(c3ccc(C(=O)NS(=O)(=O)c4ccc(NCC5CCOCC5)c([N+](=O)[O-])c4)c(Oc4cnc5[nH]ccc5c4)c3)CC2)=C(c2ccc(Cl)cc2)C1 [Venetoclax]; conditions: max 1 µM
How it was run: (§1)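 Viability was measured with CellTiter-Glo 2.0 luminescence after 72 hours of dosing at a final DMSO of typically 0.2%, and scaled between blank-well and DMSO-well means. Beforehand, cancer cell lines sat 24 hours at 37°C and 5% CO2 in 1536-well plates in 7.5 μl DMEM/F12 or RPMI with 10% FBS. A non-linear mixed effects model fitted two-parameter logistic curves to the dose responses. The single-agent IC50 comes from these fits.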

Selumetinib = compound: Cn1cnc2c(F)c(Nc3ccc(Br)cc3Cl)c(C(=O)NOCCO)cc21 [Selumetinib]; conditions: max 10 µM
How it was run: as §1

Taselisib = compound: Cc1nc(-c2cn3c(n2)-c2ccc(-c4cnn(C(C)(C)C(N)=O)c4)cc2OCC3)n(C(C)C)n1 [Taselisib]; conditions: max 10 µM
How it was run: as §1

Trametinib = compound: CC(=O)Nc1cccc(-n2c(=O)n(C3CC3)c(=O)c3c(Nc4ccc(I)cc4F)n(C)c(=O)c(C)c32)c1 [Trametinib]; conditions: max 1 µM
How it was run: as §1

Savolitinib = compound: C[C@@H](c1ccc2nccn2c1)n1nnc2ncc(-c3cnn(C)c3)nc21 [Savolitinib]; conditions: max 1 µM
How it was run: as §1

Doxorubicin = compound: COc1cccc2c1C(=O)c1c(O)c3c(c(O)c1C2=O)C[C@@](O)(C(=O)CO)C[C@@H]3O[C@H]1C[C@H](N)[C@H](O)[C@H](C)O1 [Doxorubicin]; conditions: max 1 µM
How it was run: as §1

Alisertib = compound: COc1cc(Nc2ncc3c(n2)-c2ccc(Cl)cc2C(c2c(F)cccc2OC)=NC3)ccc1C(=O)O [Alisertib]; conditions: max 10 µM
How it was run: as §1

AZD1390 = compound: CC(C)n1c(=O)n(C)c2cnc3cc(F)c(-c4ccc(OCCCN5CCCCC5)nc4)cc3c21 [AZD1390]; conditions: max 0.3 µM
How it was run: as §1

Gefitinib = compound: COc1cc2ncnc(Nc3ccc(F)c(Cl)c3)c2cc1OCCCN1CCOCC1 [Gefitinib]; conditions: max 10 µM
How it was run: as §1

Prexasertib = compound: COc1cccc(OCCCN)c1-c1cc(Nc2cnc(C#N)cn2)n[nH]1 [Prexasertib]; conditions: max 1 µM
How it was run: as §1

Lapatinib = compound: CS(=O)(=O)CCNCc1ccc(-c2ccc3ncnc(Nc4ccc(OCc5cccc(F)c5)c(Cl)c4)c3c2)o1 [Lapatinib]; conditions: max 10 µM
How it was run: as §1

SN-38 = compound: CCc1c2c(nc3ccc(O)cc13)-c1cc3c(c(=O)n1C2)COC(=O)[C@]3(O)CC [SN-38]; conditions: max 0.3 µM
How it was run: as §1

Crizotinib = compound: C[C@@H](Oc1cc(-c2cnn(C3CCNCC3)c2)cnc1N)c1c(Cl)ccc(F)c1Cl [Crizotinib]; conditions: max 10 µM
How it was run: as §1

Capivasertib = compound: C1CN(CCC1(C(=O)N[C@@H](CCO)C2=CC=C(C=C2)Cl)N)C3=NC=NC4=C3C=CN4 [Capivasertib]; conditions: max 10 µM
How it was run: as §1

Palbociclib = compound: CC(=O)c1c(C)c2cnc(Nc3ccc(N4CCNCC4)cn3)nc2n(C2CCCC2)c1=O [Palbociclib]; conditions: max 10 µM
How it was run: as §1

AZD8186 = compound: C[C@@H](Nc1cc(F)cc(F)c1)c1cc(C(=O)N(C)C)cc2c(=O)cc(N3CCOCC3)oc12 [AZD8186]; conditions: max 3 µM
How it was run: as §1

AZD0156 = compound: CN(C)CCCOc1ccc(-c2ccc3ncc4c(c3c2)n(C2CCOCC2)c(=O)n4C)cn1 [AZD0156]; conditions: max 3 µM
How it was run: as §1

AZD5153 = compound: COc1nnc2ccc(N3CCC(c4ccc(OCCN5CCN(C)C(=O)[C@H]5C)cc4)CC3)nn12 [AZD5153]; conditions: max 1 µM
How it was run: as §1

Olaparib = compound: O=C(c1cc(Cc2n[nH]c(=O)c3ccccc23)ccc1F)N1CCN(C(=O)C2CC2)CC1 [Olaparib]; conditions: max 10 µM
How it was run: as §1

SG3199 = compound: CC1=CN2[C@@H](C1)C=NC3=CC(=C(C=C3C2=O)OC)OCCCCCOC4=C(C=C5C(=C4)N=C[C@@H]6CC(=CN6C5=O)C)OC [SG3199]; conditions: max 0.001 µM
How it was run: as §1

AZD6738 = compound: C[C@@H]1COCCN1C2=NC(=NC(=C2)C3(CC3)[S@](=N)(=O)C)C4=C5C=CNC5=NC=C4 [AZD6738]; conditions: max 10 µM
How it was run: as §1

AZD5991 = compound: Cc1c2c(nn1C)CSCc1cc(n(C)n1)CSc1cc(c3ccccc3c1)OCCCc1c(C(=O)O)n(C)c3c-2c(Cl)ccc13 [AZD5991]; conditions: max 1 µM
How it was run: as §1

Dasatinib = compound: CC1=C(C(=CC=C1)Cl)NC(=O)C2=CN=C(S2)NC3=CC(=NC(=N3)C)N4CCN(CC4)CCO [Dasatinib]; conditions: max 2 µM
How it was run: as §1

AZD2811 = compound: CCN(CCO)CCCOc1ccc2c(Nc3cc(CC(=O)Nc4cccc(F)c4)[nH]n3)ncnc2c1 [AZD2811]; conditions: max 1 µM
How it was run: as §1

AZD4320 = compound: CN(CC[C@H](CSC1=CC=CC=C1)NC2=C(C=C(C=C2)S(=O)(=O)NC(=O)C3=CC=C(C=C3)N4CCC(CC4)[C@H](C5=CC=CC=C5C6=CC=C(C=C6)Cl)O)S(=O)(=O)C(F)(F)F)CCO [AZD4320]; conditions: max 1 µM
How it was run: as §1

AZD7648 = compound: Cc1cc2ncnn2cc1Nc1ncc2c(n1)n(C1CCOCC1)c(=O)n2C [AZD7648]; conditions: max 10 µM
How it was run: as §1

AZD1775 = compound: C=CCn1c(=O)c2cnc(Nc3ccc(N4CCN(C)CC4)cc3)nc2n1-c1cccc(C(C)(C)O)n1 [AZD1775]; conditions: max 3 µM
How it was run: as §1

Cell Line	IC50, cell viability 72 h (Venetoclax)	IC50, cell viability 72 h (Selumetinib)	IC50, cell viability 72 h (Taselisib)	IC50, cell viability 72 h (Trametinib)	IC50, cell viability 72 h (Savolitinib)	IC50, cell viability 72 h (Doxorubicin)	IC50, cell viability 72 h (Alisertib)	IC50, cell viability 72 h (AZD1390)	IC50, cell viability 72 h (Gefitinib)	IC50, cell viability 72 h (Prexasertib)	IC50, cell viability 72 h (Lapatinib)	IC50, cell viability 72 h (SN-38)	IC50, cell viability 72 h (Crizotinib)	IC50, cell viability 72 h (Capivasertib)	IC50, cell viability 72 h (Palbociclib)	IC50, cell viability 72 h (AZD8186)	IC50, cell viability 72 h (AZD0156)	IC50, cell viability 72 h (AZD5153)	IC50, cell viability 72 h (Olaparib)	IC50, cell viability 72 h (SG3199)	IC50, cell viability 72 h (AZD6738)	IC50, cell viability 72 h (AZD5991)	IC50, cell viability 72 h (Dasatinib)	IC50, cell viability 72 h (AZD2811)	IC50, cell viability 72 h (AZD4320)	IC50, cell viability 72 h (AZD7648)	IC50, cell viability 72 h (AZD1775)
AM-38 (Glioblastoma)	> 1000 nM	3750 nM	> 10000 nM	71.7 nM	> 1000 nM	694 nM	> 10000 nM	> 300 nM	> 10000 nM	126 nM	> 10000 nM	22.7 nM	> 10000 nM	> 10000 nM	> 10000 nM	> 3000 nM	> 3000 nM	> 1000 nM	> 10000 nM	> 1 nM	4800 nM	> 1000 nM	> 2000 nM	> 1000 nM	> 1000 nM	> 10000 nM	2610 nM
BHT-101 (Thyroid Gland Carcinoma)	> 1000 nM	1360 nM	6450 nM	18.2 nM	> 1000 nM	> 1000 nM	1850 nM	> 300 nM	> 10000 nM	293 nM	> 10000 nM	30.9 nM	8670 nM	> 10000 nM	9120 nM	> 3000 nM	> 3000 nM	60.1 nM	> 10000 nM	> 1 nM	9260 nM	> 1000 nM	1100 nM	> 1000 nM	> 1000 nM	> 10000 nM	> 3000 nM
CL-11 (Colorectal Carcinoma)	> 1000 nM	1060 nM	> 10000 nM	33.5 nM	> 1000 nM	> 1000 nM	527 nM	> 300 nM	> 10000 nM	90.3 nM	> 10000 nM	57.9 nM	> 10000 nM	> 10000 nM	> 10000 nM	> 3000 nM	> 3000 nM	224 nM	> 10000 nM	> 1 nM	3040 nM	> 1000 nM	> 2000 nM	> 1000 nM	> 1000 nM	> 10000 nM	859 nM
DBTRG-05MG (Glioblastoma)	> 1000 nM	> 10000 nM	> 10000 nM	> 1000 nM	> 1000 nM	> 1000 nM	> 10000 nM	> 300 nM	> 10000 nM	> 1000 nM	> 10000 nM	> 300 nM	> 10000 nM	> 10000 nM	> 10000 nM	> 3000 nM	> 3000 nM	> 1000 nM	> 10000 nM	> 1 nM	> 10000 nM	> 1000 nM	> 2000 nM	> 1000 nM	> 1000 nM	> 10000 nM	> 3000 nM
